Results on four compounds are retold here after patent US10717781B2, “Neuroinvasion inhibitor” (National Cancer Center, priority 2008, dated 2020).

One assay relates to pancreatic cancer. Particulars: pancreatic cancer patients, foreign phase III clinical trial data, cited from earlier work.
The subject of assay [1] is neural invasion of human pancreatic cancer cells in mouse sciatic nerve. Nature of the assay: administration of inhibitors to neural invasion model mice. The format is in vivo. How it is done: Six-week-old male mice with severe combined immune deficiency (SCID) were used. The mice were anesthetized by administering barbital at 50 mg/kg into their peritoneal cavities. After exposing the left sciatic nerves, 2.5 μl of a suspension of cancer cells (1.0×10^4 cells/μl) was injected directly into the sciatic nerves using a microsyringe and 30-gauge needle. Upon assessment, the sciatic nerves into which cancer cells were injected were isolated. When tissue samples were prepared, the nerves were allowed to stand in 4% paraformaldehyde at 4° C. for one whole day and night to fix them. The fixed sciatic nerves were sliced into 3-μm sections, and then immunostained or hematoxylin/eosin-stained to measure the distance of neural invasion. Using an objective micrometer (Sankei Co.), the longitudinal length of the whole tumor was measured in the longitudinally sliced thin sections of the nerves to determine the distance of neural invasion. Tissue mRNA was extracted from tissue samples prepared by crushing with a Multi-Beads Shocker (Yasui Kikai Co.) immediately after harvesting the tissues.
The distance of neural invasion is an important factor in the mode of invasion of pancreatic cancer. […]
The analysis software used was STATVIEW 5.0. The difference between average values was evaluated by two-sided Student-t test. […]

Assay [2] relates to human pancreatic cancer cell lines. The assay can be described thus: chemotaxis assay. Particulars: hrIL6 0, 1, 10, 100 ng/ml, 24 hours (FIG. 2C). The format is cell-based. How it is done:
(§1) Capan-1 and BxPC-3, which are human pancreatic cancer cell lines, were purchased from the American Type Culture Collection (ATCC). According to the manual recommended by ATCC, the cells were cultured and passaged using an incubator capable of maintaining a temperature of 37° C. under 5% CO2.
Cell culture inserts (BD Falcon) having 8-μm pores in the bottom surface were inserted into 24 wells. The cell culture inserts and wells were used as upper and lower chambers, respectively. Human recombinant IL-6 (hrIL6) vehicles were prepared at 0, 1, 10, and 100 ng/ml using hrIL6 (R&D systems) and serum-free culture medium. 600 μl of the hrIL6 vehicles was added to the lower chambers. 100 μl of a cell suspension (2×10^6 cells/ml) was added to the upper chambers. After 24 hours of incubation, cells that passed through the pores were counted. This assay was carried out twelve times for each group. The cell count was divided by the average number of cells that passed through the pores at 0 ng/ml hrIL6. The resulting normalized values were recorded.
(§2) Using human recombinant IL-6, the effects of IL-6 on growth activity, chemotactic activity, and migratory activity of the human pancreatic cancer cell lines were assessed by monitoring the cell count over time (FIGS. 2A and 2B), by chemotaxis assay (FIG. 2C), and by wound healing assay (FIG. 2D).

Assay [3] shares this test system. Nature of the assay: cell growth activity by monitoring the cell count over time. It is filed as cell-based. Particulars: cell count over time (FIGS. 2A and 2B). The procedure: as §1
Cells were harvested from dishes, and viable cells were counted using trypan blue and a hemocytometer.
as §2

Assay [4] deals with human pancreatic cancer Capan-1 cell line. The assay can be described thus: Western blotting of intracellular signaling (pSTAT3, pErk1/2, pAkt). It is filed as cell-based. The procedure: Western blotting was carried out using the following primary antibodies: anti-phosphorylated STAT3 antibody (Santa Cruz), anti-STAT3 antibody (Santa Cruz), anti-phosphorylated Erk1/2 antibody (Cell Signaling), anti-Erk1/2 antibody (Cell Signaling), anti-phosphorylated Akt antibody (Cell Signaling), anti-Akt antibody (Cell Signaling), and anti-actin antibody (Santa Cruz). Fluorescent immunostaining was carried out using the following primary antibodies: anti-S100 antibody (DAKO) and anti-mouse IL-6 antibody (Santa Cruz). Nuclear staining was performed using DRAQ5 (AXXORA). Immunostaining was performed using an anti-phosphorylated STAT3 antibody (Santa Cruz).
Cell lysates were prepared using a lysate buffer (20 mM Hepes-NaOH (pH 7.0), 0.5% NP-40, 15% Glycerol, 300 mM NaCl, 1 mM EDTA, 10 mM NaF). The protein concentration was determined using a BCA Protein Assay Kit (PIERCE). Then, cell lysates containing […] of protein were electrophoresed in 7.5% or 12% acrylamide gels. The proteins were transferred onto a polyvinylidene difluoride membrane (Millipore). An antibody was added to the membrane, and the protein expression was visualized using Enhanced Chemiluminescence Reagent (Amersham Biosciences).
Using human recombinant IL-6 (rhIL6), the effect of IL-6 on intracellular signaling of the human pancreatic cancer Capan-1 cell line was assessed by Western blotting for phosphorylated STAT3 (pSTAT3) (FIG. 3A), phosphorylated Erk1/2 (pErk1/2) (FIG. 3B), and phosphorylated Akt (pAkt) (FIG. 3C). […] In contrast, IL-6 had no effect on the expression of phosphorylated Akt.
In general terms: In western blotting, separated proteins are transferred to a membrane and probed.

Assay [5] relates to human pancreatic cancer cell lines. Nature of the assay: wound healing assay (migratory activity). The format is cell-based. The settings on record: hrIL6 0, 1, 10, 100 ng/ml, 24 hours (FIG. 2D). The procedure: as §1
1 ml of a cell suspension (3×10^5 cells/ml) was added to each of 24 wells, and incubated for 24 hours. Then, the medium was replaced with serum-free medium. After 24 hours of incubation, a strip-shaped cell-free area was produced by scraping the central area of the well with a glass rod. After measuring the width of the strip, the medium was replaced with an hrIL6 vehicle at 0, 1, 10, or 100 ng/ml. After 24 hours of incubation, changes in the width of the cell-free area were determined. This assay was carried out twelve times for each group. The determined values were divided by the average width change at 0 ng/ml hrIL6. The resulting normalized values were recorded.
as §2

Structures can show the parent of a compound that is named as a salt.

Regarding `Nc1ccn([C@@H]2O[C@H](CO)[C@@H](O)C2(F)F)c(=O)n1` [gemcitabine hydrochloride], in the assay on pancreatic cancer (first drug of choice), the “efficacy rate of palliative effects” value is given as 23.8%. Moreover, in the assay with pancreatic cancer, the median survival time is reported as 5.7 months and the one-year survival rate is 18%.

Turning to “anti-human IL-6 receptor antibody: anti-IL-6 receptor antibody (tocilizumab; Chugai Pharmaceutical Co.), which inhibits the human IL-6 receptor; humanized PM-1 antibody”, in assay [1] (5 μg/g twice a week for two weeks from one week after injection of cancer cells, assessed at three weeks, vs human IgG (FIG. 9B)), the “neural invasion (invasion distance)” value is recorded as “suppression of neural invasion”.

As for “IL-6: Human recombinant IL-6 (R&D systems), cytokine added to pancreatic cancer cell lines”, the “effect on chemotactic activity” value in assay [2] is given as “enhances”. Moreover, the “effect on cell growth” value in assay [3] was “no effect”. In assay [4] (Capan-1 (FIG. 3C)), the “expression of phosphorylated Akt” value is given as “no effect”. Moreover, the “intracellular expression level of phosphorylated STAT3 protein” value in assay [4] (Capan-1, 15 minutes after addition of rhIL6 (FIG. 3A)) is “clearly elevated”. In addition, in assay [4] (Capan-1, one hour after addition of rhIL6 (FIG. 3B)), the “intracellular expression level of phosphorylated Erk1/2 proteins” value was “clearly elevated”. Also, in assay [5], the “effect on migratory activity” value is “enhances”.

Regarding `N#C/C(=C/c1ccc(O)c(O)c1)C(=O)NCc1ccccc1` [AG490], in assay [1] (0.5 mg intraperitoneally every day for 12 days from two days after injection of cancer cells, assessed at two weeks, vs 1% DMSO (FIG. 9A)), the “neural invasion (invasion distance)” value is recorded as “suppression of neural invasion”.
